Reference: patent US8460669B2, “Compositions and methods for identifying response targets and treating flavivirus infection responses” (Academia Sinica, priority 2005, dated 2013)

Legend:
[1] = target: T1, MMR.Fc (Homo sapiens, UniProt P22897); assay: Sugar competition EIA, MMR.Fc binding to GLPS-F3; settings: sugar 1 mg/ml
T1 construct: The extracellular domains of lectin receptors, TREMs and TLTs were cloned by the reverse-transcriptase polymerase chain reaction (RT-PCR); made in house; host or cells: 293-F (FreeStyle 293) cells
T1 sequence (P22897 19-1389 limits assumed): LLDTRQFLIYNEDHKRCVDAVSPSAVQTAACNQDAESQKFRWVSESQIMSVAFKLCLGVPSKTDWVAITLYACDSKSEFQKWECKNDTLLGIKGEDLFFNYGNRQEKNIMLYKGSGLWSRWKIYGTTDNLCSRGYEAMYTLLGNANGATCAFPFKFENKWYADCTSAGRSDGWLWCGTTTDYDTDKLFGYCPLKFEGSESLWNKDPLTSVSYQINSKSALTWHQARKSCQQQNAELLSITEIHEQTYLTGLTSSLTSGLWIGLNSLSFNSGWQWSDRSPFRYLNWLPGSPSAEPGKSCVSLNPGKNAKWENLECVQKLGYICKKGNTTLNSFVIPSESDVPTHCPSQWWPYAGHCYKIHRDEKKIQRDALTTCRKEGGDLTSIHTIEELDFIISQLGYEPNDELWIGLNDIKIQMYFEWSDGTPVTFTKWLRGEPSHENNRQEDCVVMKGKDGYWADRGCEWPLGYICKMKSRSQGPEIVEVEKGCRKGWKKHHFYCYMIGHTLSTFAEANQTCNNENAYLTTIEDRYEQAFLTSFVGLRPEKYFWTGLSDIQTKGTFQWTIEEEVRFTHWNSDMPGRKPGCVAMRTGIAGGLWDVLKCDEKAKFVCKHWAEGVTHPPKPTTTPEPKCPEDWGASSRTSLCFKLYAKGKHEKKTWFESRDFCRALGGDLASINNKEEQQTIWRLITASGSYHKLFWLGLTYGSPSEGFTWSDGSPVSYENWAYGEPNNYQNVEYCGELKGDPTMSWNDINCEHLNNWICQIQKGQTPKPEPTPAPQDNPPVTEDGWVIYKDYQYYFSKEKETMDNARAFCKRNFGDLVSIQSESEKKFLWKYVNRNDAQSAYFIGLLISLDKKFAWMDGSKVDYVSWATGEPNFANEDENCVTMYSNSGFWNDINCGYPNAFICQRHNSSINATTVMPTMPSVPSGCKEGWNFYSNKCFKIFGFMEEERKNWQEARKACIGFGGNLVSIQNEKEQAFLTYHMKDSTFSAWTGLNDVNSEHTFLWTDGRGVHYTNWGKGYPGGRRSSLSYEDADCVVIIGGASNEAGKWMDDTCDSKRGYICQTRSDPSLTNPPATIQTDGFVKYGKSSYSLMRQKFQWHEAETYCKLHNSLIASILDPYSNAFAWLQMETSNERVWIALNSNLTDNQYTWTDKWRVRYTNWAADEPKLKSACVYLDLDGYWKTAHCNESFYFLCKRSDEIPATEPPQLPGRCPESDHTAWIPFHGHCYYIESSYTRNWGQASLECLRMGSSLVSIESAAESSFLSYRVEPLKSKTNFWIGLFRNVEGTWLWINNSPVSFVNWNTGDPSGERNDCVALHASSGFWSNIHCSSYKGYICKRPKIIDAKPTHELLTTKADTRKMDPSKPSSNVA
Method: (§1) The interaction between GLPS-F3 and receptor.Fc was then tested. Unbiotinylated GLPS-F3 was immobilized at 100 ng/well as described above, and 100 μL receptor.Fc fusion protein (1 μg/ml in 2 mM MgCl2/2 mM CaCl2/1% BSA/TBST) was added into each well and incubated for 1 hour at room temperature. After washing with TBST, wells were incubated with peroxidase-conjugated goat anti-human IgG Ab (1:5000 dilution, Jackson ImmunoResearch Laboratories) in blocking buffer at room temperature for 30 min. Wells were incubated with 100 μL TMB substrate for 15 min after TBST washing and read at 450 nm in a Fusion plate reader (Perkin Elmer). The results were normalized with respect to Fc.Dectin-1 binding (Dectin-1 is a known lectin receptor that binds to β-1,3-glucan which is the backbone found in GLPS-F3). FIG. 6B depicts in graphical form the affinity of each receptor for GLPS-F3 relative to Dectin-1. […] There was also weaker but positive GLPS-F3 binding ability (25-50% binding intensity compared to Fc.dectin-1) found in Fc.NKG2D, Fc.MINCLE, Fc.mKCR, DCAL1.Fc, DEC205.Fc, Endo180.Fc and NKp30(NCR3).Fc.
(§2) To understand the interaction of GLPS-F3 with specific innate immunity receptors, the polysaccharides mannan and β-glucan and the monosaccharides D-mannose (Man), D-glucose (Glc), N-acetyl-glucosamine (GlcNAc), D-galactose (Gal), N-acetyl-galactosamine (GalNAc), L-fucose (Fuc) and sialic acid, were used in a competition assay. […] The assays were carried out as in Example 9, with the addition of 1 mg/ml of each polysaccharide or monosaccharide.

[2] = target: T2, DC-SIGN (Homo sapiens, UniProt Q9NNX6); assay: Sugar competition EIA, Fc.DC-SIGN binding to GLPS-F3; settings: sugar 1 mg/ml
T2 construct: The extracellular domains of lectin receptors, TREMs and TLTs were cloned by the reverse-transcriptase polymerase chain reaction (RT-PCR); made in house; host or cells: 293-F (FreeStyle 293) cells
T2 sequence (Q9NNX6 59-404 limits assumed): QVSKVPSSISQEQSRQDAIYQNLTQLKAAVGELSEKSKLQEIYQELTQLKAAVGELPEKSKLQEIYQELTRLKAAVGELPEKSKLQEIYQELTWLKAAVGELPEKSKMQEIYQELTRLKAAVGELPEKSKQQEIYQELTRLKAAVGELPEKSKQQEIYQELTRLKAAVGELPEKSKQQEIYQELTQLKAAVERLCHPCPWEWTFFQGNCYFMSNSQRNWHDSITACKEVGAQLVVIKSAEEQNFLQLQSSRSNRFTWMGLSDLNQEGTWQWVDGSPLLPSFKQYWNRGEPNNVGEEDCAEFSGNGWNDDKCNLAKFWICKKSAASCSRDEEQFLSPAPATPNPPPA
Method: as §1, §2

[3] = target: T3, Dectin-1.Fc (Homo sapiens, UniProt Q9BXN2); assay: Immunosorbent dot binding assay with Dectin-1.Fc; settings: competitor 0.1 μg-1000 μg, or EDTA 10 mM in TBST
T3 construct: The extracellular domains of lectin receptors, TREMs and TLTs were cloned by the reverse-transcriptase polymerase chain reaction (RT-PCR); made in house; host or cells: 293-F (FreeStyle 293) cells
T3 sequence (Q9BXN2 66-247 limits assumed): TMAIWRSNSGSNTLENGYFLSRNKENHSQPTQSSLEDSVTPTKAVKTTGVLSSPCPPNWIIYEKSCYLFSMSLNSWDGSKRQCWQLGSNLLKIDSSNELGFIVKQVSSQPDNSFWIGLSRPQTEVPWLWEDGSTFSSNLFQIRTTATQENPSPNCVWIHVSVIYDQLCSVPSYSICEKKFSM

[4] = target: T4, TLR4.Fc (Homo sapiens, UniProt O00206); assay: Sugar competition EIA, TLR4.Fc binding to GLPS-F3; settings: sugar 1 mg/ml
T4 construct: The extracellular domains of several innate immunity receptors from immune cells were cloned by reverse-transcription polymerase chain reaction (RT-PCR); made in house; host or cells: 293-F (FreeStyle 293) cells
Method: as §1, §2

[5] = target: T5, Langerin (Homo sapiens, UniProt Q9UJ71); assay: Sugar competition EIA, Fc.Langerin binding to GLPS-F3; settings: sugar 1 mg/ml
T5 construct: The extracellular domains of lectin receptors, TREMs and TLTs were cloned by the reverse-transcriptase polymerase chain reaction (RT-PCR); made in house; host or cells: 293-F (FreeStyle 293) cells
Method: as §1, §2

[6] = target: T6, CLEC-2 (Homo sapiens, UniProt Q9P126); assay: Sugar competition EIA, Fc.CLEC-2 binding to GLPS-F3; settings: sugar 1 mg/ml
T6 construct: The extracellular domains of lectin receptors, TREMs and TLTs were cloned by the reverse-transcriptase polymerase chain reaction (RT-PCR); made in house; host or cells: 293-F (FreeStyle 293) cells
Method: as §1, §2

[7] = target: T7, CLEC-6 (Homo sapiens, UniProt Q8WXI8); assay: Sugar competition EIA, Fc.CLEC-6 binding to GLPS-F3; settings: sugar 1 mg/ml
T7 construct: The extracellular domains of lectin receptors, TREMs and TLTs were cloned by the reverse-transcriptase polymerase chain reaction (RT-PCR); made in house; host or cells: 293-F (FreeStyle 293) cells
T7 sequence (Q8WXI8 39-215 limits assumed): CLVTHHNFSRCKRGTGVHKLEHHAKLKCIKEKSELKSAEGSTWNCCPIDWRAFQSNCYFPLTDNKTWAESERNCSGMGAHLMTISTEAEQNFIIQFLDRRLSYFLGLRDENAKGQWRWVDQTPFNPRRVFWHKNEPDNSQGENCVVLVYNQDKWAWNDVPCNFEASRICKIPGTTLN
Method: as §1, §2

[8] = target: T8, Dectin-1 (Homo sapiens, UniProt Q9BXN2); assay: Sugar competition EIA, Fc.Dectin-1 binding to GLPS-F3; settings: sugar 1 mg/ml
T8 construct: The extracellular domains of lectin receptors, TREMs and TLTs were cloned by the reverse-transcriptase polymerase chain reaction (RT-PCR); made in house; host or cells: 293-F (FreeStyle 293) cells
T8 sequence (Q9BXN2 66-247 limits assumed): T3 sequence (Q9BXN2 66-247 limits assumed)
Method: as §1, §2

T6 sequence (Q9P126 55-229 limits assumed): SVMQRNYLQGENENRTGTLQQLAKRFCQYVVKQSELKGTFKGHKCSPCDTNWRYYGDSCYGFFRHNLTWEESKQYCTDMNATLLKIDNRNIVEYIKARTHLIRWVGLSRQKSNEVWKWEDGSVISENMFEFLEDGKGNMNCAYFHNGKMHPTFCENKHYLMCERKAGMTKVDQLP
T4 sequence (O00206 24-631 limits assumed): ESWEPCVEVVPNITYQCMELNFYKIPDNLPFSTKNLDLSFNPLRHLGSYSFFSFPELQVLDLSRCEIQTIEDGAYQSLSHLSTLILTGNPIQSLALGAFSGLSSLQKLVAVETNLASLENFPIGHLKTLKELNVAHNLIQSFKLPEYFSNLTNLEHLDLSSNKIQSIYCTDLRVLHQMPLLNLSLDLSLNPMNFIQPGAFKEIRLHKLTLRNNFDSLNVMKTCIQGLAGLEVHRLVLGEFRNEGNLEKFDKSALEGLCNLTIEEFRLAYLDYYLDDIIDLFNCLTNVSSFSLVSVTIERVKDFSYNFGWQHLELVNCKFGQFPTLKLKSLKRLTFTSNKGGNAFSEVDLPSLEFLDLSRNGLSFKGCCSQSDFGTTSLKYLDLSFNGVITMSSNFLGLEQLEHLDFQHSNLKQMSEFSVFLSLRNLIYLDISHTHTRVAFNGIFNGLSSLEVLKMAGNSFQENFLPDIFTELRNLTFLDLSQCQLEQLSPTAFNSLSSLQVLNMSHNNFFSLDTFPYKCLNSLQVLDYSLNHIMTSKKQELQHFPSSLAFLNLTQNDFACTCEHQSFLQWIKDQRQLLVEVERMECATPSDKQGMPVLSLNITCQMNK
T5 sequence (Q9UJ71 65-328 limits assumed): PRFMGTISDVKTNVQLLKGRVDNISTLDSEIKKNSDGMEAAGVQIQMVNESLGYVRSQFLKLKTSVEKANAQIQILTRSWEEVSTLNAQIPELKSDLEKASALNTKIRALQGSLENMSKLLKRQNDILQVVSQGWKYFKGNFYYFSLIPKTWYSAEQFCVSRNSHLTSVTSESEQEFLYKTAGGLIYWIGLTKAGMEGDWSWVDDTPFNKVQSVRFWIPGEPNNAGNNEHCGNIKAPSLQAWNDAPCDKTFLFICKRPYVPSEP

Row | SMILES | inhibition of interaction between GLPS-F3 and MMR.Fc [1] | inhibition of binding of Fc.DC-SIGN to GLPS-F3 [2] | inhibition of the interaction between Dectin-1.Fc and F3 [3] | Percentage of binding of TLR4.Fc to GLPS-F3 relative to binding in absence of sugar competitor [4] | Percentage of binding of MMR.Fc to GLPS-F3 relative to binding in absence of sugar competitor [1] | Percentage of binding of Langerin Fc fusion to GLPS-F3 relative to binding in absence of sugar competitor [5] | inhibition of interaction between Fc.Langerin and GLPS-F3 [5] | Percentage of binding of CLEC-2 Fc fusion to GLPS-F3 relative to binding in absence of sugar competitor [6] | Percentage of binding of DC-SIGN Fc fusion to GLPS-F3 relative to binding in absence of sugar competitor [2] | Percentage of binding of CLEC-6 Fc fusion to GLPS-F3 relative to binding in absence of sugar competitor [7] | Percentage of binding of Dectin-1 Fc fusion to GLPS-F3 relative to binding in absence of sugar competitor [8] | inhibition of interaction of Fc.CLEC-2 to GLPS-F3 [6] | inhibition of interaction between GLPS-F3 and Fc.Dectin-1 [8]
1 | O=C[C@H](O)[C@@H](O)[C@H](O)[C@H](O)CO [Glc, D-glucose] | 45% | 45% | not | 101 ± 4.7% |  |  |  |  |  |  |  |  | 
2 | CC(=O)N[C@H]1C(O)O[C@H](CO)[C@@H](O)[C@@H]1O (some centres unmarked) [GlcNAc, N-acetyl-glucosamine] | 78% | 27% |  | 99 ± 4.7% | 22 ± 3.4% | 16 ± 2.7% | 84% | 103 ± 10.2% | 73 ± 8.6% | 99 ± 8.5% | 91 ± 2.6% |  | 
3 | CC(=O)N[C@H]1[C@H]([C@H](O)[C@H](O)CO)OC(O)(C(=O)O)C[C@@H]1O (some centres unmarked) [sialic acid] | 93% | 90% |  | 77 ± 3.1% | 7 ± 2.4% | 5 ± 0.3% | 95% | 45 ± 6.2% | 10 ± 1.0% | 94 ± 13.0% | 17 ± 0.3% | 55% | 83%
